PMC4334441 (Analytical biochemistry, 2013)
Read-outs that look alike come from different tables or passages of the source.

Experiments:
Format in all cases: biochemical
[1] = molecular target: mammalian-expressed ADAM17_ECD (Homo sapiens, UniProt P78536); test: Inhibition studies; settings: comparison of insect- and mammalian-produced ADAM17_ECD
[2] = molecular target: insect-produced ADAM17 ECD (Homo sapiens, UniProt P78536); test: Inhibition kinetics; settings: for Ki/Ki′ (alpha) / inhibition mechanism: insect-produced ADAM17 ECD; for Ki/Ki′ (alpha): mixed-model inhibition; for inhibition mechanism: confirmed by Lineweaver-Burke plots
Sequence of insect-produced ADAM17 ECD (P78536 215-671 limits assumed): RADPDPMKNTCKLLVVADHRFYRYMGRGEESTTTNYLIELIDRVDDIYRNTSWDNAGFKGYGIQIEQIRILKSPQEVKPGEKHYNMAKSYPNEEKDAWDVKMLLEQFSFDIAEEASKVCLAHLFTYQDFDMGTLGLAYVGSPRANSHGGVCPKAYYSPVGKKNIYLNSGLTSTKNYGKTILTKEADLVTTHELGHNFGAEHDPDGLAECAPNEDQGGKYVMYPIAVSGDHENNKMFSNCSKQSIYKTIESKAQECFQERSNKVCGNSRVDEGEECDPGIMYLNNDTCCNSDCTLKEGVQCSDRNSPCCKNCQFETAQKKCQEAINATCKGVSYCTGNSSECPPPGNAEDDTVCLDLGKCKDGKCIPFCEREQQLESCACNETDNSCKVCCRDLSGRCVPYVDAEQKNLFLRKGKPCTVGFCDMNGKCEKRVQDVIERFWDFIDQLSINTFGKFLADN

[3] = molecular target: mammalian-produced ADAM17 ECD (Homo sapiens, UniProt P78536); test: Inhibition kinetics; settings: for Ki/Ki′ (alpha) / inhibition mechanism: mammalian-produced ADAM17 ECD; for Ki/Ki′ (alpha): mixed-model inhibition; for inhibition mechanism: confirmed by Lineweaver-Burke plots
Sequence of mammalian-produced ADAM17 ECD (P78536 215-651 limits assumed): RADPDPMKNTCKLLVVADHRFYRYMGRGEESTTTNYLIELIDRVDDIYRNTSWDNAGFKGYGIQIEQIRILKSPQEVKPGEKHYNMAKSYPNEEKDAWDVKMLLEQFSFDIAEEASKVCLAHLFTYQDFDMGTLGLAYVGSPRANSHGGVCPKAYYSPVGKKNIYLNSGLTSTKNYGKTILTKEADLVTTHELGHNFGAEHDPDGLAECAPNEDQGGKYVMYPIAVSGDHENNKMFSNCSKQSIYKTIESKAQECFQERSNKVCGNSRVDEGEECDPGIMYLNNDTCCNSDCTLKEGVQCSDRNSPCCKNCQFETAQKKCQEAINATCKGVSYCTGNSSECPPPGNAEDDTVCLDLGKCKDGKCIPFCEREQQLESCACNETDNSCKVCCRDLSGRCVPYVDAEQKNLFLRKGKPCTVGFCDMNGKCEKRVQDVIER

[4] = molecular target: insect-produced ADAM17_ECD (R&D Systems) (Homo sapiens, UniProt P78536); test: ADAM17 active site titration with MMP-9/-13 inhibitor, insect-produced ADAM17
Sequence of insect-produced ADAM17_ECD (R&D Systems) (P78536 215-671 limits assumed): as the sequence (P78536 215-671 limits assumed) above

Sequence of mammalian-expressed ADAM17_ECD (P78536 215-651 limits assumed): as the sequence (P78536 215-651 limits assumed) above

SMILES | dose response curves for inhibition of insect- versus mammalian-expressed ADAM17 [1] | Ki [2] | Ki/Ki′ (alpha) [2] | inhibition mechanism ([2]; non-linear regression) | Ki [3] | Ki/Ki′ (alpha) [3] | inhibition mechanism ([3]; non-linear regression) | stoichiometry of ADAM17_ECD and MMP-9/-13 inhibitor (factor) ([4]; 10.5 nM divided by enzyme concentration 0.4 nM, Fig. 5B) | concentration of inhibitor necessary to produce 100% inhibition of ADAM17 ([4]; titration, enzyme concentration 0.4 nM, Fig. 5A) | Ki ([2]; insect-produced ADAM17, mixed inhibition model, non-linear regression) | Ki ([3]; mammalian-produced ADAM17, mixed inhibition model, non-linear regression)
CC(=O)NO [AHA, N-acetohydroxamic acid] | superimposable | – | – | – | – | – | – | – | – | – | –
COc1ccc(S(=O)(=O)N2CCN(C(=O)c3ccc(-c4ccccc4)cc3)CC2C(=O)NO)cc1 (centres unmarked) [MMP-9/-13 inhibitor, N-hydroxy-1-(4-methoxyphenyl)sulfonyl-4-(4-biphenylcarbonyl)piperazine-2-carboxamide] | superimposable | 3.1 ± 0.2 nM | 0.91 ± 0.26 | pure non-competitive inhibition | 1.8 ± 0.1 nM | 0.99 ± 0.34 | pure non-competitive inhibition | 26.3 | 10.5 nM | – | –
CC(C)C[C@H](CC(=O)NO)C(=O)N[C@H](C(=O)N[C@@H](C)C(=O)NCCN)C(C)(C)C [TAPI-2] | superimposable | – | 1.76 ± 0.42 | mixed inhibition | – | 2.27 ± 0.55 | mixed inhibition | – | – | 31 ± 1.4 nM | 32 ± 5 nM
